The source of these data is PubChem BioAssay (NCI).

“And” between values parts separate entries of the source, which are not always exact repeats. Equal values may be shown once.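 Exposure lasted 48 hours, with cells grown in 96-well plates and compounds tested at five concentrations. GI50 is the concentration that inhibits growth by half. The concentration for full growth arrest is given as TGI.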

The test deals with MDA-MB-468 breast. Briefly: inhibition of tumour cell growth, NCI panel, 48 h.
Consider `CCOC(=O)C1=C(C)N2C(=NC3=C(CCC/C3=C\c3ccc(Cl)cc3)C2c2ccc(Cl)cc2)S1` (stereo unspecified), for which the GI50 was 2360 nM and the TGI came out at 6.19 µM. In the case of `Cc1cccc2c(Nc3ccc(NS(C)(=O)=O)cc3)c3ccc([N+](=O)[O-])cc3nc12`, the GI50 is 202 nM and the TGI amounted to 0.882 µM.

For `Cc1cc(NC(=O)c2cnc(N3CCN(CCOCCOCCOCCOCCC(=O)N[C@H](C(=O)N4C[C@H](O)C[C@H]4C(=O)N[C@@H](C)c4ccc(-c5scnc5C)cc4)C(C)(C)C)CC3)cn2)c2ncccc2c1`, the GI50 is 1670 nM and the TGI amounted to 3.39 µM. For `COc1cc(/C=C/[N+](=O)[O-])cc(OC)c1OC`, in that order: 1320 nM and 2.87 µM.

Regarding `O=C1CCC(N2C(=O)c3cccc(NCCCC4CCN(CCNC(=O)c5cc6c(o5)C(=O)c5ccccc5C6=O)CC4)c3C2=O)C(=O)N1` (stereo unspecified), the GI50 was 265 nM and the TGI was 1.94 µM.

Consider `COc1ccc(C2C(C#N)=C(/N=C/c3ccc(Cl)cc3)Oc3c2sc2c(C)cccc32)cc1` (stereo unspecified), for which the GI50 is 1090 nM and the TGI turned out to be 9.34 µM. As to `COc1ccc2c(c1)/C(=C\c1c[nH]c3ccc(OC)cc13)C(=O)N2`, the GI50 is 1780 nM and the TGI came to 5.66 µM.

On to `C=CCn1c(=O)c2cnc(Nc3ccc(N4CCN(C)CC4)cc3)nc2n1-c1cccc(C(C)(C)O)n1`, for which the GI50 was 144 nM and 317 nM; the TGI is 0.801 µM and 2.08 µM.

Regarding `COC1=CC(=O)c2c(O)c3c(c(O)c2C1=O)C[C@](C)(O)C[C@@H]3O`, the GI50 was 2160 nM and the TGI was found to be 7.13 µM. In the case of `CC/C=C\C/C=C/C=C1/C(=O)C=C[C@@H]1C/C=C\CCCC(=O)OC`, the GI50 is 1790 nM and the TGI worked out at 3.83 µM.

`CCN(CC)CCC(CNc1c(C)cnc2cc(Cl)ccc12)c1ccc(Cl)cc1` (stereo unspecified): the GI50 was 2050 nM and the TGI was determined as 5.45 µM. For `CN(c1ccc(C#N)c(Cl)c1)C1CCC(NC(=O)c2ccc(N3CCN(C4CN(c5ccc6c(c5)C(=O)N(C5CCC(=O)NC5=O)C6=O)C4)CC3)cc2)CC1` (stereo unspecified), in that order: 13700 nM and 60 µM. As to `OCc1ccc(N2CCCC2)cc1Cl`, the GI50 is 75.7 nM and the TGI was 0.324 µM. For `CCN(CC)CCCC(C)Nc1c(-c2ccccc2)cnc2cc(Cl)ccc12` (stereo unspecified), the GI50 is 2630 nM and the TGI was 7.95 µM. For `C=C1C(=O)O[C@H]2[C@H]1CC/C(CNC(=O)/C=C/c1ccccc1)=C\CC[C@@]1(C)O[C@@H]21`, the GI50 was 480 nM and the TGI worked out at 1.69 µM. On to `O=C1CSC(c2ccccc2O)N1c1nnc(Cn2ccnc2)o1` (stereo unspecified), for which the GI50 is 3110 nM and the TGI is 13.2 µM. For `Cc1ccc(NC(=O)Nc2nc3ccc([N+](=O)[O-])cc3s2)cc1`, in that order: 1710 nM and 5.8 µM.

With `CCN1C(=O)N(CC)C2C1NN=c1s/c(=C\c3ccc[nH]3)c(=O)n12` (stereo unspecified), the GI50 is 265 nM and the TGI is > 100 µM. `NNc1c2ccccc2nc2ccccc12`: the GI50 is 470 nM and the TGI amounted to 13 µM. Turning to `Cc1oc2c(c1C(=O)N1CC[C@@H](N)C1)C(=O)c1c(c(O)c3ccccc3c1O)C2=O`, the GI50 is 2520 nM and the TGI came out at 11.9 µM. In the same order, the values of `Oc1c(Cl)cc(Cl)c2cccnc12` are 2100 nM and 5.53 µM. For `Cc1ccc(Sc2oc(-c3ccc(C)cc3)nc2[P+](c2ccccc2)(c2ccccc2)c2ccccc2)cc1`, in that order: 227 nM and 0.705 µM. For `Brc1cccc(-c2cc(-c3ccc4nccnc4c3)[nH]n2)c1`, the GI50 is 900 nM. For `O=c1c(O)cccn1CCCN(CCCn1cccc(O)c1=O)CCn1cccc(O)c1=O`, the GI50 is 8330 nM and the TGI is 45.6 µM. In the case of `N/C(=N\c1nc2ccccc2s1)NC(=NC1CCCCC1)NC1CCCCC1`, the GI50 was 1700 nM and the TGI was found to be 3.41 µM. As to `Nc1n[nH]c2ccc([C@@H]3Nc4cc5[nH]ncc5cc4[C@H]4C5CCC(C5)[C@@H]34)cc12` (stereo partly specified), the GI50 is 211 nM and the TGI was 0.873 µM.

On to `Cn1c2c(c3ccccc31)CCN1C(=O)C3SC21C1C(=O)N(c2ccccc2)C(=O)C31` (stereo unspecified), for which the GI50 was 51600 nM and the TGI is > 100 µM. With `CCN(CC)C(=S)SSC(=S)N(CC)CC`, the GI50 was 15800 nM and 16800 nM; the TGI was 43.7 µM and 44.8 µM. As for `NS(=O)(=O)c1cccc(-c2ccc3c(NC(=O)C4CC4)n[nH]c3c2)c1`, the GI50 was 5250 nM and the TGI was > 25 µM. Consider `Cc1c2ccncc2c(C)c2c1c1cc(CO)ccc1n2C`, for which the GI50 is 105 nM and the TGI amounted to 0.327 µM. For `Cn1nnc2c(C(N)=O)ncn2c1=O`, the GI50 was > 100000 nM and the TGI was > 100 µM.

For `O=C(Nc1cnc(C(F)(F)F)cn1)c1cc(Cl)ccc1O`, the GI50 is 282 nM and the TGI came to 0.819 µM.

Take `O=[N+]([O-])c1ccc2c(Nc3ccccc3-c3ccccc3Nc3c4ccccc4nc4cc([N+](=O)[O-])ccc34)c3ccccc3nc2c1`: the GI50 was 2250 nM and the TGI was 8.6 µM. For `O=C1/C(=C/c2cccc(Br)c2)COc2ccc(O)c(O)c21`, in that order: 1600 nM and 3.8 µM. Turning to `COc1cc(OC)cc(-c2n/c(=C\c3c(O)[nH]c4ccc(Cl)cc34)cc3c2=Nc2ccccc2-3)c1`, the GI50 is 17900 nM and the TGI was found to be 45.6 µM. For `C=C1CC[C@@H]2[C@](C)(COC(C)=O)[C@H](OC(C)=O)CC[C@@]2(C)[C@@H]1CC(Nc1ccc(S(=O)(=O)Nc2nccs2)cc1)C1=CCOC1=O` (stereo partly specified), in that order: 1830 nM and 4.43 µM.

For `C[C@@H]1COCCN1c1cc(-c2ccnn2C)c2ccnc(-c3ccn[nH]3)c2n1`, the GI50 was 164 nM and 324 nM; the TGI was 0.854 µM and 3.08 µM. In the case of `C[C@H]1c2ccccc2CN1CCCOc1cc2c(cc1OCC1CC1)C1(CCCC1)C(N)=N2`, the GI50 is 813 nM and the TGI stood at 1.83 µM. In the same order, the values of `COc1cccc(CC(C)=C(c2ccc(OCCCN(C)C)cc2)c2ccc(OCCCN(C)C)cc2)c1` are 518 nM and 1.18 µM. `CCN(C(=O)CN1CCN(c2cc3c(cc2F)c(=O)c(C(=O)O)cn3CC)CC1)c1nc(-c2ccccc2)cs1`: the GI50 was 307 nM and the TGI was 0.896 µM. For `NC(=O)c1cccc(-c2cc(C(N)=O)ccc2Cl)c1`, in that order: 4610 nM and > 100 µM. In the same order, the values of `CC(=O)O.CC(=O)O.CC(=O)O.CC(=O)O.[Rh].[Rh]` are 15000 nM and 58.1 µM. `COc1cc(C2CC(=O)Nc3c2cc(Br)c2ccccc32)cc(Br)c1OC` (stereo unspecified): the GI50 is 529 nM and the TGI is 2.54 µM. In the same order, the values of `COc1cccc(C2C(C#N)=C(N)Oc3c2ccc2ccccc32)c1` (stereo unspecified) are 19.4 nM and 7.04 µM. In the same order, the values of `Nc1ncccc1-c1nc2ccc(-c3ccccc3)nc2n1-c1ccc(C2(N)CCC2)cc1` are 117 nM and 1.99 µM.

For `COc1ccc(Oc2ccccc2NC(=O)CNC(=O)c2cccc3ccccc23)cc1`, the GI50 is 454 nM and the TGI was > 25 µM.
